Here are results for three molecules from US7314616B1, “Additive containing an anti-fungal amount of a salt of formic acid” (priority 2003, dated 2008).

In the assay the test system is fungi spores. The experiment in a line: inhibitory effect on the growth of fungi spores. Type of assay: cell-based.
As for `COC1=CC(=O)O[C@@H](CCc2ccc3c(c2)OCO3)C1` [dihydromethysticin], the “inhibitory effect on the growth of fungi spores” value (“inhibitory effect on the growth” for short) is given as “exhibit inhibitory effect”.

For `COC1=CC(=O)O[C@@H](CCc2ccccc2)C1` [diydrokawain], the “inhibitory effect on the growth” value is “exhibit inhibitory effect”.

With `COC1=CC(=O)O[C@@H](/C=C/c2ccccc2)C1` [kawain], the “inhibitory effect on the growth” value is reported as “exhibit inhibitory effect”.
